Literature values, collected in article PMC6971042, “Exploring ion-ion preferences through structure-property correlations: amino acid-derived, bis(guanidinium) disiloxane salts” (Scientific Reports, 2020).

Design: method as in PMID 26714187
Conditions: qualitative

Row | Compound | water solubility
1 | C[Si](C)(CCCNC(=N)N)O[Si](C)(C)CCCNC(=N)N.O=[N+]([O-])O [1,3-bis(3-guanidinopropyl)-tetramethyldisiloxane nitrate] | abnormally low
2 | C[Si](C)(CCCNC(=N)N)O[Si](C)(C)CCCNC(=N)N [GUA, 1,3-bis(3-guanidinopropyl)-tetramethyldisiloxane dichloride] | fully water-miscible
